Laboratory results as given in the NIST ThermoML archive (doi:10.1016/j.tca.2012.01.013).

Columns and labels:
[1] = xn = mol fraction of the nth substance listed; details: 101 kPa, Liquid, Vibrating tube method
[2] = refractive index (Na D-line) (dimensionless); xn = mol fraction of the nth substance listed; details: 101 kPa, Liquid, Standard Abbe refractometry

COC(=O)CCCCC(=O)OC [dimethyl 1,6-hexanedioate] + CCC(C)O
Details | mass density, [1] [kg/m3] | refractive index, [2]
288.15 K, x1 = 0.1 | 851.006 | 1.40371
288.15 K, x1 = 0.2001 | 886.929 | 1.40787
288.15 K, x1 = 0.3 | 918.373 | 1.41161
288.15 K, x1 = 0.4 | 946.216 | 1.41507
288.15 K, x1 = 0.5003 | 971.377 | 1.41815
288.15 K, x1 = 0.6 | 994.171 | 1.42105
288.15 K, x1 = 0.6999 | 1014.77 | 1.42368
288.15 K, x1 = 0.8005 | 1033.71 | 1.42612
288.15 K, x1 = 0.8999 | 1050.86 | 1.42837
288.15 K, x1 = 1 | 1066.79 | 1.4305
293.15 K, x1 = 0.1 | 846.719 | 1.40153
293.15 K, x1 = 0.2001 | 882.468 | 1.4057
293.15 K, x1 = 0.3 | 913.786 | 1.40945
293.15 K, x1 = 0.4 | 941.538 | 1.4129
293.15 K, x1 = 0.5003 | 966.636 | 1.41602
293.15 K, x1 = 0.6 | 989.387 | 1.41891
293.15 K, x1 = 0.6999 | 1009.96 | 1.42156
293.15 K, x1 = 0.8005 | 1028.88 | 1.42403
293.15 K, x1 = 0.8999 | 1046.01 | 1.42628
293.15 K, x1 = 1 | 1061.93 | 1.42842
298.15 K, x1 = 0.1 | 842.377 | 1.39933
298.15 K, x1 = 0.2001 | 877.96 | 1.40348
298.15 K, x1 = 0.3 | 909.164 | 1.40724
298.15 K, x1 = 0.4 | 936.838 | 1.41071
298.15 K, x1 = 0.5003 | 961.876 | 1.41385
298.15 K, x1 = 0.6 | 984.59 | 1.41676
298.15 K, x1 = 0.6999 | 1005.13 | 1.41943
298.15 K, x1 = 0.8005 | 1024.03 | 1.42191
298.15 K, x1 = 0.8999 | 1041.15 | 1.4242
298.15 K, x1 = 1 | 1057.06 | 1.42636
303.15 K, x1 = 0.1 | 837.975 | 1.39709
303.15 K, x1 = 0.2001 | 873.411 | 1.40124
303.15 K, x1 = 0.3 | 904.511 | 1.405
303.15 K, x1 = 0.4 | 932.113 | 1.40851
303.15 K, x1 = 0.5003 | 957.1 | 1.41165
303.15 K, x1 = 0.6 | 979.781 | 1.4146
303.15 K, x1 = 0.6999 | 1000.3 | 1.4173
303.15 K, x1 = 0.8005 | 1019.19 | 1.41981
303.15 K, x1 = 0.8999 | 1036.29 | 1.42211
303.15 K, x1 = 1 | 1052.18 | 1.42429
308.15 K, x1 = 0.1 | 833.506 | 1.39479
308.15 K, x1 = 0.2001 | 868.81 | 1.39899
308.15 K, x1 = 0.3 | 899.82 | 1.40278
308.15 K, x1 = 0.4 | 927.355 | 1.4063
308.15 K, x1 = 0.5003 | 952.301 | 1.40948
308.15 K, x1 = 0.6 | 974.955 | 1.41244
308.15 K, x1 = 0.6999 | 995.457 | 1.41515
308.15 K, x1 = 0.8005 | 1014.33 | 1.4177
308.15 K, x1 = 0.8999 | 1031.43 | 1.42004
308.15 K, x1 = 1 | 1047.31 | 1.42222
313.15 K, x1 = 0.1 | 828.965 | 1.39245
313.15 K, x1 = 0.2001 | 864.16 | 1.39669
313.15 K, x1 = 0.3 | 895.087 | 1.40049
313.15 K, x1 = 0.4 | 922.569 | 1.40404
313.15 K, x1 = 0.5003 | 947.474 | 1.40726
313.15 K, x1 = 0.6 | 970.109 | 1.41026
313.15 K, x1 = 0.6999 | 990.598 | 1.41301
313.15 K, x1 = 0.8005 | 1009.47 | 1.41557
313.15 K, x1 = 0.8999 | 1026.55 | 1.41795
313.15 K, x1 = 1 | 1042.43 | 1.42017
318.15 K, x1 = 0.1 | 824.35 | 1.39013
318.15 K, x1 = 0.2001 | 859.451 | 1.39438
318.15 K, x1 = 0.3 | 890.312 | 1.39825
318.15 K, x1 = 0.4 | 917.75 | 1.4018
318.15 K, x1 = 0.5003 | 942.626 | 1.40503
318.15 K, x1 = 0.6 | 965.245 | 1.40808
318.15 K, x1 = 0.6999 | 985.726 | 1.41088
318.15 K, x1 = 0.8005 | 1004.59 | 1.41348
318.15 K, x1 = 0.8999 | 1021.67 | 1.41588
318.15 K, x1 = 1 | 1037.54 | 1.41819
323.15 K, x1 = 0.1 | 819.659 | 1.38776
323.15 K, x1 = 0.2001 | 854.686 | 1.39207
323.15 K, x1 = 0.3 | 885.493 | 1.39597
323.15 K, x1 = 0.4 | 912.894 | 1.39955
323.15 K, x1 = 0.5003 | 937.752 | 1.40283
323.15 K, x1 = 0.6 | 960.363 | 1.40592
323.15 K, x1 = 0.6999 | 980.838 | 1.40875
323.15 K, x1 = 0.8005 | 999.701 | 1.41138
323.15 K, x1 = 0.8999 | 1016.78 | 1.41382
323.15 K, x1 = 1 | 1032.64 | 1.41614

COC(=O)CCCCC(=O)OC [dimethyl 1,6-hexanedioate] + CCCCO
Details | mass density, [1] [kg/m3] | refractive index, [2]
288.15 K, x1 = 0.0999 | 854.546 | 1.40584
288.15 K, x1 = 0.2004 | 890.617 | 1.40986
288.15 K, x1 = 0.2999 | 921.957 | 1.41343
288.15 K, x1 = 0.4003 | 949.859 | 1.41668
288.15 K, x1 = 0.4999 | 974.548 | 1.41965
288.15 K, x1 = 0.6007 | 996.907 | 1.42221
288.15 K, x1 = 0.6996 | 1016.65 | 1.42454
288.15 K, x1 = 0.7994 | 1034.84 | 1.4267
288.15 K, x1 = 0.8991 | 1051.42 | 1.42867
288.15 K, x1 = 1 | 1066.79 | 1.4305
293.15 K, x1 = 0.0999 | 850.5 | 1.40378
293.15 K, x1 = 0.2004 | 886.373 | 1.40776
293.15 K, x1 = 0.2999 | 917.562 | 1.41135
293.15 K, x1 = 0.4003 | 945.34 | 1.41458
293.15 K, x1 = 0.4999 | 969.9 | 1.41754
293.15 K, x1 = 0.6007 | 992.211 | 1.4201
293.15 K, x1 = 0.6996 | 1011.89 | 1.42243
293.15 K, x1 = 0.7994 | 1030.03 | 1.4246
293.15 K, x1 = 0.8991 | 1046.58 | 1.42658
293.15 K, x1 = 1 | 1061.93 | 1.42842
298.15 K, x1 = 0.0999 | 846.433 | 1.40169
298.15 K, x1 = 0.2004 | 882.112 | 1.40568
298.15 K, x1 = 0.2999 | 913.148 | 1.40925
298.15 K, x1 = 0.4003 | 940.805 | 1.41247
298.15 K, x1 = 0.4999 | 965.3 | 1.41541
298.15 K, x1 = 0.6007 | 987.507 | 1.418
298.15 K, x1 = 0.6996 | 1007.13 | 1.42033
298.15 K, x1 = 0.7994 | 1025.22 | 1.4225
298.15 K, x1 = 0.8991 | 1041.74 | 1.42451
298.15 K, x1 = 1 | 1057.06 | 1.42636
303.15 K, x1 = 0.0999 | 842.341 | 1.39959
303.15 K, x1 = 0.2004 | 877.825 | 1.40356
303.15 K, x1 = 0.2999 | 908.714 | 1.40713
303.15 K, x1 = 0.4003 | 936.253 | 1.41033
303.15 K, x1 = 0.4999 | 960.66 | 1.41329
303.15 K, x1 = 0.6007 | 982.791 | 1.41588
303.15 K, x1 = 0.6996 | 1002.36 | 1.41823
303.15 K, x1 = 0.7994 | 1020.41 | 1.42042
303.15 K, x1 = 0.8991 | 1036.89 | 1.42242
303.15 K, x1 = 1 | 1052.18 | 1.42429
308.15 K, x1 = 0.0999 | 838.219 | 1.39746
308.15 K, x1 = 0.2004 | 873.513 | 1.40144
308.15 K, x1 = 0.2999 | 904.259 | 1.40498
308.15 K, x1 = 0.4003 | 931.684 | 1.4082
308.15 K, x1 = 0.4999 | 955.998 | 1.41109
308.15 K, x1 = 0.6007 | 978.06 | 1.41376
308.15 K, x1 = 0.6996 | 997.573 | 1.41612
308.15 K, x1 = 0.7994 | 1015.59 | 1.41832
308.15 K, x1 = 0.8991 | 1032.04 | 1.42035
308.15 K, x1 = 1 | 1047.31 | 1.42222
313.15 K, x1 = 0.0999 | 834.066 | 1.39533
313.15 K, x1 = 0.2004 | 869.172 | 1.3993
313.15 K, x1 = 0.2999 | 899.775 | 1.40285
313.15 K, x1 = 0.4003 | 927.091 | 1.40603
313.15 K, x1 = 0.4999 | 951.32 | 1.40901
313.15 K, x1 = 0.6007 | 973.316 | 1.41163
313.15 K, x1 = 0.6996 | 992.781 | 1.41402
313.15 K, x1 = 0.7994 | 1010.76 | 1.41623
313.15 K, x1 = 0.8991 | 1027.18 | 1.41828
313.15 K, x1 = 1 | 1042.43 | 1.42017
318.15 K, x1 = 0.0999 | 829.874 | 1.39323
318.15 K, x1 = 0.2004 | 864.799 | 1.39716
318.15 K, x1 = 0.2999 | 895.264 | 1.40072
318.15 K, x1 = 0.4003 | 922.473 | 1.40393
318.15 K, x1 = 0.4999 | 946.622 | 1.40688
318.15 K, x1 = 0.6007 | 968.555 | 1.40952
318.15 K, x1 = 0.6996 | 987.974 | 1.4119
318.15 K, x1 = 0.7994 | 1005.91 | 1.41415
318.15 K, x1 = 0.8991 | 1022.31 | 1.41622
318.15 K, x1 = 1 | 1037.54 | 1.41819
323.15 K, x1 = 0.0999 | 825.64 | 1.39109
323.15 K, x1 = 0.2004 | 860.391 | 1.39505
323.15 K, x1 = 0.2999 | 890.725 | 1.39859
323.15 K, x1 = 0.4003 | 917.832 | 1.40177
323.15 K, x1 = 0.4999 | 941.902 | 1.40473
323.15 K, x1 = 0.6007 | 963.778 | 1.4074
323.15 K, x1 = 0.6996 | 983.155 | 1.40981
323.15 K, x1 = 0.7994 | 1001.06 | 1.41207
323.15 K, x1 = 0.8991 | 1017.44 | 1.41416
323.15 K, x1 = 1 | 1032.64 | 1.41614
